According to PubChem BioAssay AID179 (DTP/NCI, 2004):
Active and inactive are the calls of the source.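 How the source made its calls: active means compounds giving half or more protection of infected cells from virus-caused growth loss, again on retest; inactive means the rest.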

System: CEM cells HIV-1 protection, formazan growth assay
Assay: NCI AIDS Antiviral Assay
Settings: for IC50: measured here: growth of uninfected CEM cells
How it was run: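 Protection of CEM cells against HIV-1 measured as cell growth via soluble formazan read-out, with five concentrations tested on both infected and uninfected cells; failure to protect may reflect toxicity.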

| Structure (SMILES) | outcome | EC50 | IC50 |
| --- | --- | --- | --- |
| O=[N+]([O-])c1ccc(/C=C/c2ccc(/C=C/c3ccc([N+](=O)[O-])cc3[N+](=O)[O-])cc2)c([N+](=O)[O-])c1 | inactive | – | – |
| Nc1ncnc2c1ncn2C1OC(CSC(F)F)C(O)C1O (stereo unspecified) | – | > 759 µM | 219 µM |
| O=C(O)COc1ccc(C(=O)/C(SS/C(C(=O)c2ccc(OCC(=O)O)c(Cl)c2Cl)=C2\C=C(c3ccc(Br)cc3)SS2)=C2/C=C(c3ccc(Br)cc3)SS2)c(Cl)c1Cl | inactive | – | – |
| CC(=O)OC1CC2C(C)(C)C(=O)C=C[C@]2(C)C2CCC3(C)C(c4ccoc4)[C@@H](O)[C@H]4O[C@]43[C@]12C (stereo partly specified) | – | > 57.5 µM | 6.17 µM |
| COc1ccc(/C=C2\SC(=S)N(C=C3C(=O)NC(=S)NC3=O)C2=O)cc1OC | – | > 200 µM | 29.5 µM |
| CCCCN=C(c1ccccc1)N1CCOCC1 | – | > 200 µM | > 200 µM |
| NC1CNC(=O)c2cscc21 (stereo unspecified) | – | > 200 µM | > 200 µM |
| COc1cc2c(c3oc(C)c(C)c(=O)c13)C=CC(C)(C)O2 | – | > 200 µM | 66.1 µM |
| COCC(C)(C)N=CN1Cc2cc3ccccc3nc2C1 | – | > 178 µM | > 178 µM |
| O=S1(=O)OCCOS(=O)(=O)C1Br | – | > 891 µM | 331 µM |
| C=C1C2CCC3C(CCC4C5(C)CCCC43C3OCCN3C5)(C2)C1OC(C)=O (stereo unspecified) | inactive | – | – |
| CN(C)c1ccc(/C=C(\NC(=O)c2ccccc2)C(=O)Nc2ccccc2C(=O)NN2C(=O)CSC2c2ccc(N(C)C)cc2)cc1 (stereo unspecified) | – | > 50.1 µM | > 50.1 µM |
| Cc1cc[n+]2n1CC(O)C2 (stereo unspecified) | inactive | – | – |
| CSc1c(N(C)C)c(=O)c1=S | – | > 200 µM | 4.9 µM |
| CC(C)(C)C(=O)/C=C/c1cccc(F)c1 | inactive | – | – |
| COCC1=C(NNC(=O)c2ccncc2)[C@@]2(C)C(=CC1=O)Oc1c(C(C)=O)c(O)c(C)c(O)c12 | – | > 200 µM | 47.9 µM |
| C/C=C(/C)C(=O)O[C@@H]1CCN2CC[C@H](COC(=O)/C(=C/C)CO)C12 (stereo partly specified) | – | > 200 µM | 107 µM |
| Cn1c(-c2cccs2)cc(-c2cccs2)c1-c1ccco1 | – | > 200 µM | 30.2 µM |
| CN(C)c1ccc(/C=C/C(=O)c2ccccc2)cc1Br | – | > 15.8 µM | > 15.8 µM |
| C/C(=N\N=C(N)N)c1ccccc1 | inactive | – | – |
| COC(=O)N1C2C3CC4C2C4C3N1C(=O)OC | inactive | – | – |
| CC(C)(C)O/N=C/c1cc(NC(=S)c2ccsc2)ccc1Cl | – | 2.14 µM | 9.55 µM |
| O=C(C(=O)N1CCc2ccccc21)c1c[nH]c2ccccc12 | – | > 200 µM | > 200 µM |

| Structure (SMILES) | outcome | EC50 | IC50 |
| --- | --- | --- | --- |
| CC1=NC(=Cc2ccc(O)cc2)C(=O)N1n1c(-c2ccccc2)nc2ccccc2c1=O | – | > 200 µM | 21.9 µM |
| O=C1c2c([N+](=O)[O-])cc(S(=O)(=O)O)c(O)c2C(=O)c2c([N+](=O)[O-])cc(S(=O)(=O)O)c(O)c21 | inactive | – | – |
| CCCCCCCCCCCCCCCC(=O)OCC(C[As](=O)(O)O)OC(=O)CCCCCCCCCCCCCCC (stereo unspecified) | – | > 38 µM | > 38 µM |
| C=CCC(C)C12CCNC(Cc3ccc(O)cc31)C2C (stereo unspecified) | – | > 200 µM | > 200 µM |
| O=C(CC(CC(=O)Oc1c(Br)cc(Br)cc1C(=O)O)C(=O)Oc1c(Br)cc(Br)cc1C(=O)O)Oc1c(Br)cc(Br)cc1C(=O)O | – | > 245 µM | 85.1 µM |
| COc1ccc(C(=O)Sc2ccccc2C(=O)Nc2ccc(S(=O)(=O)NC(C)=O)cc2)cc1 | – | 22.4 µM | > 100 µM |
| O=Cc1ccc2c(c1)CC1(Cc3ccccc3C1)C2 | – | > 200 µM | 33.9 µM |
| O=C(NC(=O)c1ccccc1O)c1ccccc1 | – | > 282 µM | > 282 µM |
| COc1ccc(CC2COC(=O)[C@@H]2Cc2ccc(O)cc2)cc1OC (stereo partly specified) | – | > 200 µM | 44.7 µM |
| C[N+]12CN3CN(C1)S(=O)(=O)N(C3)C2 | inactive | – | – |
| COc1cccc(CCn2c(N)c(C#N)c3ccc([N+](=O)[O-])cc3c2=O)c1 | – | > 200 µM | 1.12 µM |
| O=c1c(NO)c([N+](=O)[O-])cnn1-c1ccccc1 | – | > 89.1 µM | 0.316 µM |
| O=[N+]([O-])C(=C1NCCN1)C(Cl)=C(Cl)Cl | – | > 200 µM | > 200 µM |
| CC(C)C(/C=C/c1ccc(Cl)c(Cl)c1)=N\NC(=O)N/N=C(/C=C/c1ccc(Cl)c(Cl)c1)C(C)C | – | > 200 µM | > 200 µM |
| COc1nc2[nH]c(C)cc(=O)c2c2ccccc12 | – | > 200 µM | > 200 µM |
| COc1ccc(-c2cc(=O)c3c(O)cc(OC)cc3o2)cc1 | – | 70.8 µM | 74.1 µM |
| N#Cc1ccc(Nc2cnc3cc(N)ccc3n2)cc1 | – | > 20 µM | > 20 µM |
| COc1cc2c(cc1OC)-c1c3cc(O)ccc3nn[n+]1CC2 | inactive | – | – |
| c1ccc(SC2(Sc3ccccc3)CCCC2)cc1 | inactive | – | – |
| Cc1nn(C(=O)c2ccc(Cl)cc2)c2c1C(c1ccc([N+](=O)[O-])cc1)SC(N)=N2 (stereo unspecified) | – | > 200 µM | 97.7 µM |
| CCOC(=O)C1=C(C)NC2=C(C(=O)CC(C)(C)C2)C1CCSC (stereo unspecified) | – | > 200 µM | > 200 µM |
| O=C(/C=C/c1ccccc1)CC(=O)CCC(=O)Nc1ccc(Cl)cc1 | inactive | – | – |
| Cc1ccc(N=C[N-]c2ccc(C)cc2)cc1.Cc1ccc(N=C[N-]c2ccc(C)cc2)cc1.O=C([O-])C(F)(F)F.O=C([O-])C(F)(F)F.[OH3+].[OH3+].[Rh+2].[Rh+2] | – | > 14.1 µM | > 14.1 µM |

| Structure (SMILES) | outcome | EC50 | IC50 |
| --- | --- | --- | --- |
| O=C(CC1(O)C(=O)Nc2c(Cl)cc(Cl)cc21)c1ccc([N+](=O)[O-])cc1 (stereo unspecified) | – | > 178 µM | 93.3 µM |
| CC(=O)OCC1OC(n2ccc(-n3cncn3)nc2=O)CC1N=[N+]=[N-] (stereo unspecified) | – | 87.1 µM | > 200 µM |
| C=CCNC(=O)NNC(O)(C(=O)OCC)C(F)(F)F (stereo unspecified) | – | > 200 µM | 174 µM |
| COC(=O)c1c[nH]c(=O)[nH]c1=O | – | > 200 µM | > 200 µM |
| C(=Nc1ccc(SSc2ccc(N=Cc3ccccc3)cc2)cc1)c1ccccc1 | – | > 200 µM | 33.1 µM |
| O=C(O)Cc1cccc2c(=O)c3cccc([N+](=O)[O-])c3[nH]c12 | – | > 200 µM | 102 µM |
| Nc1ccc2cc(S(=O)(=O)O)c(N=Nc3ccc(-c4ccc(N=Nc5c(S(=O)(=O)O)cc6cc(S(=O)(=O)O)cc(N)c6c5O)cc4)cc3)c(O)c2c1 | inactive | – | – |
| Cc1cc2c(c(S(=O)(=O)c3ccccc3[N+](=O)[O-])c1)NCCC2 | – | 1.55 µM | 21.4 µM |
| CCc1c(-c2ccccc2)[nH]c(=S)c(C#N)c1C | – | > 200 µM | > 200 µM |
| O=C1c2cc3c(cc2CC12Cc1ccc4c(c1C2=O)CCC4)CCC3 (stereo unspecified) | – | > 200 µM | > 200 µM |
| Cc1cc2cc(Cl)ccc2nc1C(=O)c1ccccc1 | – | > 2.57 µM | > 2.57 µM |
| COc1ccc([N+](=O)[O-])c2c(NCC(O)CO)ccnc12 (stereo unspecified) | – | > 200 µM | 29.5 µM |
| C=CCc1oc(C)nc1CCCC | – | > 200 µM | > 200 µM |
| Fc1ccc(CSc2cnnc(SCc3ccc(F)cc3)c2SCc2ccc(F)cc2)cc1 | – | > 200 µM | 39.8 µM |
| O=C1Cc2ccccc2N1/N=C\c1ccc([N+](=O)[O-])cc1 | – | > 67.6 µM | > 67.6 µM |
| Cc1ccc(C(=O)NC(C)(C)C)cc1N=NN(C)C | – | > 138 µM | > 138 µM |
| OC1(c2ccccc2)CSc2ncnn21 (stereo unspecified) | – | 138 µM | > 200 µM |
| C#CCOCC12C=CC(O1)C1C(=O)OCC12 (stereo unspecified) | – | > 200 µM | > 200 µM |
| CCOC(CCc1c(C)nc(NC(C)=O)[nH]c1=O)OCC | – | > 200 µM | > 200 µM |
| CSc1nnc(SC)c2[nH]cnc12 | – | > 200 µM | > 200 µM |
| S=C(N/N=C(/c1ccccc1)c1ccccn1)Nc1cccc(Cl)c1 | – | > 0.2 µM | 0.0891 µM |
| C#CCNC(CSSCC(N)C(=O)O)C(=O)O (stereo unspecified) | – | 6.92 µM | > 200 µM |
| COC(=O)[C@]12CSC[C@H]1C[C@H](c1cccc3ccccc13)N2 | – | > 200 µM | > 200 µM |

| Structure (SMILES) | outcome | EC50 | IC50 |
| --- | --- | --- | --- |
| O=C(Nc1ccc(Cl)cc1)NC(O)C(Cl)(Cl)Cl (stereo unspecified) | – | > 200 µM | 148 µM |
| CCOC(=O)CCC(NC(=O)c1ccc(Nc2cnc3ccc(C(F)(F)F)cc3n2)cc1)C(=O)OCC (stereo unspecified) | – | > 200 µM | 18.6 µM |
| CNS(=O)(=O)NNS(=O)(=O)c1ccc(Cl)cc1 | – | > 120 µM | > 120 µM |
| CCOC(=O)C(=O)C(=O)NN(C)C1=NCCN1 | – | > 200 µM | > 200 µM |
| CN(C)P1(=O)NCC(C(C)(C)C)CO1 (stereo unspecified) | – | > 562 µM | > 562 µM |
| CC(=O)Nc1ccc(OC2=CCN(C)CC2)cc1 | – | > 200 µM | > 200 µM |
| O=[N+]([O-])c1ncc(N(CCO)CCO)s1 | – | > 200 µM | 85.1 µM |
| CCCCC[C@@H]1CCC[C@H]2NC(CCCCC3OCCO3)CC[C@@H]12 (stereo partly specified) | inactive | – | – |
| N#CCCN(CCC#N)CCN(CCN(CCC#N)CCC#N)CCN(CCC#N)CCC#N | – | > 200 µM | > 200 µM |
| N.N.N.O=[N+]([O-])[O-].O=[N+]([O-])[O-].O=[N+]([O-])[O-].O=[N+]([O-])[O-].[Co+3] | – | > 692 µM | 117 µM |
| CC1=CC(C)(C)Nc2ccccc2N1 | – | > 200 µM | > 200 µM |
| CC1CC(=O)C(CC(=O)O)[C@H]1C(C(=O)C(=O)Nc1cc(Cl)ccc1Cl)[N+](=O)[O-] (stereo partly specified) | inactive | – | – |
| Nc1ccn(C2CSC(CO)O2)c(=O)n1 (stereo unspecified) | – | 0.145 µM | 10 µM |
| CSc1ccc(NC(=O)Nc2cc(C)ccn2)cc1 | – | > 200 µM | 191 µM |
| CC(C)(C)[Si](C)(C)OC[C@H]1O[C@@H](n2ccc(=O)[nH]c2=O)C(O[Si](C)(C)C(C)(C)C)[C@]12CCN(O)CO2 (stereo partly specified) | – | > 200 µM | 11.5 µM |
| COC1=C(C)C2CC(=O)OC3CC4C(C)CC(OC(C)=O)C(=O)[C@]4(C)C(C1=O)[C@@]32C (stereo partly specified) | inactive | – | – |
| COc1cc2c(cc1OC)C(Cl)C(c1ccc(F)cc1)=C2Cl (stereo unspecified) | inactive | – | – |
| CC(=O)OC1(C#N)CC2OC1C1NC21 (stereo unspecified) | – | > 676 µM | > 676 µM |
| C/C=C(/C)C(=O)O[C@H]1C[C@@H]2[C@@H](O)c3occ(C)c3C[C@]2(C)[C@@H](C)C1 | – | > 200 µM | 10.5 µM |
| C=C1[C@H](O)[C@@]2(C(=O)N1OC)/C(=C/CC)C=CC(=O)C2O (stereo partly specified) | – | > 891 µM | 331 µM |
